{"source": "patent US20080220056A1", "about": "“Treatment for liver disease” (UNIVERSITY OF SOUTHAMPTON, priority 2002, published 2008)", "key": {"[1]": {"tested_on": "caspase 3 activity in 10 day culture activated hepatic stellate cells", "assay": "Caspase 3 activity (pNA liberation) of hepatic stellate cells treated with 5-HT2 antagonists", "assay_type": "cell-based, rat", "conditions": "for effect of serotonin on the specific caspase 3 activity: LY 53,857 100 μM 24 hours, Methiothepin maleate 10 μM 3 hours, with serotonin (100 M [sic])", "procedure": "(§1) The mRNA for the 5-HT2B receptor was only found in 10 day culture activated hepatic stellate cells, whereas the mRNA for the 5-HT2C receptor was absent from all cells investigated. […] 10 day culture activated hepatic stellate cells were treated with a range of 5-HT2 antagonists (including Spiperone HCl, Methiothepin Maleate and LY 53,857) at various concentrations and time periods and nuclear morphology was assessed using Acridine Orange (1 μg/ml) staining as described in Examples 1 and 2. […] Caspase 3 activity (as defined by pNA liberation) was subsequently determined at the predetermined optimal times and doses as described in Examples 1 and 2. 10 day culture activated hepatic stellate cells were also treated with the antagonist together with the 5-HT2 agonist serotonin (5-hydroxytryptamine 100 µM) to see if any modification of the caspase 3 specific activity could be achieved by direct receptor binding site competition."}, "[2]": {"tested_on": "10 day culture activated hepatic stellate cells", "assay": "Nuclear morphology (acridine orange) of hepatic stellate cells treated with 5-HT2 antagonists", "assay_type": "cell-based, rat", "procedure": "as §1"}, "[3]": {"tested_on": "caspase 3 activity in rat hepatic stellate cells", "assay": "Caspase 3 (Ac-DEVD-pNA cleavage) activity in rat hepatic stellate cells", "assay_type": "cell-based", "conditions": "200 μmol/L chlorpromazine, three hours", "procedure": "Hepatic stellate cells cultured in 100 mm diameter dishes (Greiner, Frickenhausen, Germany) were harvested and pelleted by centrifugation. The medium supernatant was discarded and the cell pellet was washed in 1 mL of ice-cooled phosphate buffered saline (PBS). Caspase 3 (DEVDase) activity was determined using a colorimetric CaspACE kit (Promega, Southampton, England) using the manufacturer's instructions.\nCaspase 3 (Ac-DEVD-pNA cleavage) activity was then examined in control and gliotoxin-treated hepatic stellate cells. Culture activated rat hepatic stellate cells (14 days) in 100 mm diameter plates were treated with 0.05% (vol/vol) DMSO, 1.5 μmol/L gliotoxin, 20 μmol/L Z-VAD-FMK or 200 μmol/L chlorpromazine for three hours. The cells were then harvested for examination of caspase 3 activity as outlined in the materials and methods sections."}, "[4]": {"tested_on": "rat hepatocytes", "assay": "DNA laddering in rat hepatocytes", "assay_type": "cell-based", "conditions": "four hours; 50 μmol/L gliotoxin, 200 μmol/L chlorpromazine, 200 μmol/L methapyrilene, 10 ng/mL TNF-α with cycloheximide", "procedure": "Hepatic stellate cells cultured in 35-mm diameter dishes (Greiner) were harvested, pelleted by centrifugation and DNA fragmentation determined as outlined elsewhere (Elsharkawy et al., Hepatology (1999) 30:761-769). Propidium Iodide Flow-Activated Cell Sorting Analysis Detached cells were pelleted by centrifugation, washed in PBS, and resuspended in HYPO buffer (0.1% wt/vol) Na3Citrate and 0.1% (wt/vol) Triton™ X-100 containing […] propidium iodide and incubated for 1 hour. The cells were then analyzed by fluorescence-activated cell sorter (FACS) with a Becton Dickinson (San Jose, Calif.) FACScan instrument using a 488 nm excitation wavelength with a band pass filter set at 530 nm. Attached cells were scraped in HYPO buffer after washing cells with PBS.\nDNA laddering was also used to compare the effect of gliotoxin, chlorpromazine, methapyrilene and also the combination of TNF-α with cycloheximide on hepatocytes and hepatic stellate cells."}, "[5]": {"tested_on": "rat hepatocytes", "assay": "Rat hepatocyte viability by attachment and trypan blue exclusion", "assay_type": "cell-based", "conditions": "200 μmol/L, four hours", "procedure": "Rat hepatocytes were isolated by collagenase perfusion essentially as previously described. (Harvey et al., Biochemical J., (1998) 331:273-281). Hepatocytes were cultured as outlined for hepatic stellate cells except that they were initially seeded onto collagen coated plates in William's medium E supplemented with 10% fetal calf serum and 1 μg/mL insulin for the first 2 hours.\nCells were treated with gliotoxin dissolved in DMSO vehicle (added to medium from a 2000-fold molar concentrated stock). Control cells received DMSO vehicle only (i.e., 0.05% vol/vol). All other additions to culture medium were made from concentrated stocks dissolved in DMSO or by direct addition to culture medium. Protein contents of wells were determined using the Lowry assay (Lowry et al., J. Biol. Chem., (1951)193: 265-275).\nThe effect of various compounds on cell viability and attachment was determined. Viability of rat hepatocytes as judged by attachment and 0.1% (wt/vol) trypan blue exclusion after four hours treatment with: […]"}, "[6]": {"tested_on": "rat hepatic stellate cells", "assay": "Trypan blue exclusion of treated rat hepatic stellate cells", "assay_type": "cell-based", "conditions": "rat HSC; 1.5 μmol/L gliotoxin or 200 μmol/L chlorpromazine"}, "[7]": {"tested_on": "caspase-3 activity in hepatic stellate cells", "assay": "Caspase-3 activity in cycloheximide-treated hepatic stellate cells", "assay_type": "cell-based", "conditions": "wild type TIMP-1 or T2G mutant N-TIMP-1", "procedure": "Apoptosis was quantified by a colorimetric assay for caspase-3 activity (Promega) according to the manufacturer's instructions.\nCaspase-3 is a central caspase in the proapoptotic cascade (Hengartner, Nature (2000) 407, 770-776) and can be used as an alternative assay to assess apoptosis. Hepatic stellate cells were cultured in 50 μM cycloheximide with TIMP-1 at a concentration of 0, 1, 10, or 100 ng/ml. Controls where cells were incubated with either the caspase 3 inhibitor benzyloxycarbonyl-Val-Ala-Asp-fluoromethylketone or serum alone were also performed. Data are expressed as mean ±S.E. and are presented as percentage of control given the arbitrary value of 100%. * indicates p<0.001; n=3. […] Although the mean caspase-3 activity of the cells treated with 10 ng/ml TIMP-1 was slightly lower than that treated with 100 ng/ml of TIMP-1, this was not statistically significant (p=0.67 by Student's t test)."}, "[8]": {"tested_on": "human hepatic stellate cells", "assay": "Hepatic stellate cell apoptosis by acridine orange staining and counting (cycloheximide or serum deprivation), human cells", "assay_type": "cell-based", "conditions": "human HSC; protein at 142.5 ng/ml", "procedure": "(§2) Human hepatic stellate cells were extracted from the margins of normal human liver resected for colonic metastatic disease as previously described (Iredale et al., Clin. Sci., (1995) 89: 75-81). Rat hepatic stellate cells were extracted from normal rat liver by Pronase and collagenase digestion and purified by centrifugal elutriation as described (Arthur et al., J. Clin. Invest., (1989) 84:1076-1085). Extracted hepatic stellate cells were cultured on plastic until they were activated to a myofibroblastic phenotype after 7 to 10 days. Human and rat hepatic stellate cells were used for experiments after activation in primary culture or before fourth passage. Cells were cultured in Dulbecco's modified Eagle's medium in the presence of 16% fetal calf serum and antibiotics.\nApoptosis of hepatic stellate cells was induced by absolute serum deprivation, cycloheximide treatment (Issa et al., Gut (2001) 48: S48-S57), or exposure to nerve growth factor as previously described (Trim et al., Am. J. Pathol., (2000) 156, 1235-1243). Hepatic stellate cells were cultured in 24-well tissue culture plates. […] Following a 4 hour incubation at 37° C., nuclear morphology was assessed by adding acridine orange to each well (final concentration 1 μg/ml) and observing the cells under blue fluorescence. The total number of apoptotic bodies was counted, and any apoptotic bodies floating in the supernatant were included by racking up the objective lens. The total number of cells per field was counted, and an apoptotic index was calculated. Each condition was performed in duplicate, and three high power fields were counted for each well. […] To examine for autocrine effects, hepatic stellate cells were incubated for 18 hours with azide-free polyclonal neutralizing antibodies to TIMP-1 and a nonimmune IgG control (Santa Cruz Biotechnology, Inc., Santa Cruz, Calif.), and responses were assessed by acridine orange staining and counting.\nApoptosis was assessed by acridine orange staining. […]"}, "[9]": {"tested_on": "rat hepatic stellate cells", "assay": "Hepatic stellate cell apoptosis by acridine orange staining and counting (cycloheximide or serum deprivation), rat cells", "assay_type": "cell-based", "conditions": "rat HSC; protein at 142.5 ng/ml", "procedure": "as §2\nApoptosis of hepatic stellate cells was induced by absolute serum deprivation, cycloheximide treatment (Issa et al., Gut (2001) 48: S48-S57), or exposure to nerve growth factor as previously described (Trim et al., Am. J. Pathol., (2000) 156, 1235-1243). Hepatic stellate cells were cultured in 24-well tissue culture plates. Rat and human hepatic stellate cells were exposed to proapoptotic stimuli with and without recombinant TIMP-1 (Biogenesis, Poole, UK) and other manipulations as detailed below. Following a 4 hour incubation at 37° C., nuclear morphology was assessed by adding acridine orange to each well (final concentration 1 μg/ml) and observing the cells under blue fluorescence. The total number of apoptotic bodies was counted, and any apoptotic bodies floating in the supernatant were included by racking up the objective lens. The total number of cells per field was counted, and an apoptotic index was calculated. Each condition was performed in duplicate, and three high power fields were counted for each well. […] To examine for autocrine effects, hepatic stellate cells were incubated for 18 hours with azide-free polyclonal neutralizing antibodies to TIMP-1 and a nonimmune IgG control (Santa Cruz Biotechnology, Inc., Santa Cruz, Calif.), and responses were assessed by acridine orange staining and counting.\nApoptosis was assessed by acridine orange staining. […] A normal cell lies adjacent to the apoptotic body. This technique was used to determine the percentage of apoptotic hepatic stellate cells following exposure to cyclohexamide in the presence or absence of TIMP-1. Hepatic stellate cells were exposed to 50 μM cyclohexamide and 0, 1, 10, 100 or 200 ng/ml of TIMP-1. Cells treated with serum alone were used as controls. […] Bovine serum albumin, used as a carrier for the TIMP-1 had no antiapoptotic effect."}}, "data": [{"compound": "CC(O)C(C)OC(=O)[C@@H]1C[C@@H]2c3cccc4c3c(cn4C(C)C)C[C@H]2N(C)C1", "note": "(stereo partly shown) [LY 53,857]", "values": [{"measurement": "specific caspase 3 activity", "setting": "[1]; 100 μM for 24 hours (LY 53,857)", "result": "1 μmol pNA liberated/hour/μg protein"}, {"measurement": "effect of serotonin on the specific caspase 3 activity", "setting": "[1]", "result": "not significantly reduced by the presence of serotonin"}, {"measurement": "maximal nuclear condensation", "setting": "[2]; 24 hours at 100 μM (LY 53,857)", "result": "~100", "unit": "%"}]}, {"compound": "CSc1ccc2c(c1)C(N1CCN(C)CC1)Cc1ccccc1S2.O=C(O)/C=C\\C(=O)O", "note": "(stereo not shown) [Methiothepin maleate]", "values": [{"measurement": "specific caspase 3 activity", "setting": "[1]; 10 μM for 3 hours (Methiothepin maleate)", "result": "0.9 μmol pNA liberated/hour/μg protein"}, {"measurement": "effect of serotonin on the specific caspase 3 activity", "setting": "[1]", "result": "not significantly reduced by the presence of serotonin"}, {"measurement": "maximal nuclear condensation", "setting": "[2]; 3 hours at 10-100 μM (Methiothepin maleate)", "result": 100, "unit": "%"}]}, {"compound": "O=C(CCCN1CCC2(CC1)C(=O)NCN2c1ccccc1)c1ccc(F)cc1", "note": "[Spiperone]", "values": [{"measurement": "specific caspase 3 activity", "setting": "[1]; 100 μM for 24 hours (Spiperone)", "result": "6.5 μmol pNA liberated/hour/μg protein"}, {"measurement": "specific caspase 3 activity in the presence of serotonin", "setting": "[1]; Spiperone 100 μM for 24 hours with serotonin (100 M [sic])", "result": "4 μmol pNA liberated/hr/μg protein"}, {"measurement": "maximal nuclear condensation", "setting": "[2]; 24 hours at 100 μM (Spiperone)", "result": 80, "unit": "%"}]}, {"compound": "CN(C)CCCN1c2ccccc2Sc2ccc(Cl)cc21", "note": "[chlorpromazine]", "values": [{"measurement": "increase in caspase 3 activity", "setting": "[3]", "result": "not seen"}, {"measurement": "cleavage of hepatocyte DNA to a nucleosomal ladder", "setting": "[4]", "result": "only hepatocytes treated with TNF-α and cycloheximide cleaved their DNA to a nucleosomal ladder"}, {"measurement": "hepatocytes that do not exclude trypan blue, compared with 50 μmol/L gliotoxin", "setting": "[5]", "result": "a level similar"}, {"measurement": "0.1% (wt/vol) trypan blue exclusion (membrane integrity)", "setting": "[6]", "result": "unable to exclude 0.1% (wt/vol) trypan blue"}]}, {"compound": "wild type N-TIMP-1: wild type (active) TIMP-1 protein compared with the T2G mutant", "values": [{"measurement": "caspase-3 activity in cycloheximide-treated hepatic stellate cells", "setting": "[7]", "result": "significantly reduced caspase-3 activity"}, {"measurement": "apoptosis induced by cycloheximide (acridine orange)", "setting": "[8]", "result": "significantly inhibited apoptosis"}, {"measurement": "apoptosis induced by cycloheximide (acridine orange)", "setting": "[9]", "result": "significantly inhibited apoptosis"}]}]}
